Source: publication PMC9757636, “The effectiveness of newly synthesized quaternary ammonium salts differing in chain length and type of counterion against priority human pathogens” (Scientific Reports, 2022)
Marks after values point to notes of the source that are not given here.

Columns and labels:
E. coli ATCC 11229 = assay: MIC/MBC microdilution; format: cell-based, Escherichia coli; conditions: E. coli ATCC 11229
Protocol: (§1) The minimum inhibitory concentration (MIC) of the tested monomeric QAS was performed using the microdilution method according to CLSI recommendation (M27-A3). Concentrations from 10 to 1280 µM were analyzed. Strains were incubated with or without compounds (growth control) for 24 h at 37 °C. Three independent replicates were performed. The MIC value was determined spectrophotometrically and the concentration that inhibited more than 90% of growth was determined. Optical density was measured at λ = 590 nm using a 96-well microplate reader (Bio-Rad Universal Hood II).
(§2) To determine the minimum bactericidal concentration (MBC), 10 µL of bacterial suspension incubated with monomeric QAS (MIC concentration and two times higher) was transferred to plates with LB (1% tryptone, 1% yeast extract, 0.5% NaCl) medium. […] The concentration that reduced 99.9% of microbial growth was determined as MBC[54].

E. coli H64 = assay: MIC/MBC microdilution; format: cell-based, Escherichia coli; conditions: E. coli H64
Protocol: as §1, §2

P. aeruginosa PAO1 [1] = assay: Adhesion to glass; format: cell-based, Pseudomonas aeruginosa; conditions: concentration not given
S. aureus ATCC 6538 = assay: MIC/MBC microdilution; format: cell-based, Staphylococcus aureus; conditions: S. aureus ATCC 6538
Protocol: as §1, §2

S. aureus MRSA R98 = assay: MIC/MBC microdilution; format: cell-based, Staphylococcus aureus
Protocol: as §1, §2

[2] = system: Salmonella typhimurium TA98; assay: Mutagenicity (Ames test); format: cell-based; conditions: for Number of colonies: ± SD
Protocol: (§3) Two reference strains of Salmonella Typhimurium TA98 and Salmonella Typhimurium TA100, deficient in histidine synthesis, were used for this study according to the method proposed by Ames et al. with modifications. […] The mixture was mixed and poured onto a Davis minimal medium plate. The mixture without the test compound was used as a negative control. The positive control was a mixture of bacterial culture, biotin-histidine solution, and sodium azide (at a concentration of 15 μg/mL for strain TA100) or acriflavine (at a concentration of 100 μg/mL for strain TA98). Plates were incubated for 48 h at 37 °C, and then colonies were counted. The mutagenicity ratio (MR), the ratio of the number of revertants grown in the presence of the test compound to the number of spontaneously occurring revertants (negative control), was calculated. A mutagenic ratio equal to or greater than 1.7 indicates the mutagenic potential of the tested compounds. The study was performed in three times.

[3] = system: Salmonella typhimurium TA100; assay: Mutagenicity (Ames test); format: cell-based; conditions: for Number of colonies: ± SD
Protocol: as §3

S. epidermidis SI8 = assay: MIC/MBC microdilution; format: cell-based, Staphylococcus epidermidis
Protocol: as §1, §2

[4] = system: S. epidermidis ATCC 35984; assay: MIC/MBC microdilution; format: cell-based, Staphylococcus epidermidis
Protocol: as §1, §2

P. aeruginosa ATCC 27853 = assay: MIC/MBC microdilution; format: cell-based, Pseudomonas aeruginosa; conditions: P. aeruginosa ATCC 27853
Protocol: as §1, §2

P. aeruginosa PAO1 [5] = assay: MIC/MBC microdilution; format: cell-based, Pseudomonas aeruginosa
Protocol: as §1, §2

[6] = Critical micelle concentration by conductometric measurements; format: physicochemical; conditions: aqueous solution, 25 °C
Protocol: Values of critical micelle concentrations (CMC) of cationic surfactants were measured conductrometrically. N5721 conductometer (Tel-Eko Projekt sp z o.o., Poland), equipped with N5981 probe, was calibrated using 0.1 M, 0.01 M and 0.001 M KCl aqueous solutions (conductivities equal to 1.287 S/m, 0.141 S/m and 0.0147 S/m, respectively) and used without temperature compensation mode (constant temperature 25 °C was kept during all calibration procedures and measurements). Values of specific conductivities of at least 15 different concentrations for each surfactant were measured and plotted versus concentration; the discontinuity point was used to determine critical micelle concentration.

S. epidermidis B374 [7] = assay: Adhesion to stainless steel; format: cell-based, Staphylococcus epidermidis; conditions: 1280 µM, ranges given over several strains
S. epidermidis B374 [8] = assay: Adhesion to polystyrene plate; format: cell-based, Staphylococcus epidermidis; conditions: 1280 µM
Protocol: (§4) Adhesion analysis to polystyrene surfaces was determined according to the method of Rodrigues et al. with modifications. Polystyrene 96-well plates were incubated with the respective compound concentrations (10–1280 µM) for 4 h at 37 °C with 100 rpm shaking. The plates were then washed with miliQ and inoculated with 100 µL of bacterial suspension (OD = 0.4–0.6). Plates were incubated for 6 h at 37 °C with 100 rpm shaking. Wells were rinsed and fixed for 20 min at 60 °C. They were then […] with 0.1% crystal violet solution for 5 min. The wells were washed with miliQ until the unfixed dye was completely eluted. The absorbance at λ = 590 nm was measured using a reader (Bio-Rad Universal Hood II). The positive control was a surface not treated with QAS. Three independent trials were performed.

[9] = system: S. epidermidis ATCC 35984; assay: Adhesion to polystyrene plate; format: cell-based, Staphylococcus epidermidis; conditions: 1280 µM, range given over two strains
Protocol: as §4

[10] = 24 h, 37 °C, >90% growth inhibition
[11] = 99.9% reduction, read-out: Minimal bactericidal concentration (*MBC)
[12] = 24 h, 37 °C, >90% growth inhibition, read-out: Minimal inhibitory concentration (MIC)

## CCCCCCCCCCCCN(C)CCC[N+](C)(C)C.COC(=O)[O-] [MeC12, [(3-dodecyilomethyloamine)propyl] trimethylammonium methylcarbonate]
E. coli ATCC 11229; 99.9% reduction
  Minimal bactericidal concentration (*MBC): 640 *640 µM
E. coli ATCC 11229; [10]
  Minimal inhibitory concentration (MIC): 640 *640 µM
E. coli H64; 99.9% reduction
  Minimal bactericidal concentration (*MBC): 640 *640 µM
E. coli H64; [10]
  Minimal inhibitory concentration (MIC): 640 *640 µM
P. aeruginosa PAO1 [1]
  reduction of adhesion to glass: approximately 20%
S. aureus ATCC 6538; [11]
  MBC: 640 µM
S. aureus ATCC 6538; [12]
  MIC: 320 µM
S. aureus MRSA R98; 99.9% reduction
  Minimal bactericidal concentration (*MBC): 640 *640 µM
S. aureus MRSA R98; [10]
  Minimal inhibitory concentration (MIC): 640 *640 µM
[2]; ¼ MIC
  Mutagenicity index: 0.75
  Number of colonies: 17 ± 3.6
[2]; ½ MIC
  Mutagenicity index: 0.92
  Number of colonies: 21 ± 3.6
[3]; ¼ MIC
  Mutagenicity index: 0.74
  Number of colonies: 208 ± 17
[3]; ½ MIC
  Mutagenicity index: 0.94
  Number of colonies: 264 ± 11.3
S. epidermidis SI8; [11]
  MBC: 640 µM
S. epidermidis SI8; [12]
  MIC: 320 µM
[4]; [11]
  MBC: 640 µM
[4]; [12]
  MIC: 320 µM
P. aeruginosa ATCC 27853; 99.9% reduction
  Minimal bactericidal concentration (*MBC): > 1280 * > 1280 µM
P. aeruginosa ATCC 27853; [10]
  Minimal inhibitory concentration (MIC): > 1280 * > 1280 µM
P. aeruginosa PAO1 [5]; 99.9% reduction
  Minimal bactericidal concentration (*MBC): > 1280 * > 1280 µM
P. aeruginosa PAO1 [5]; [10]
  Minimal inhibitory concentration (MIC): > 1280 * > 1280 µM
[6]
  CMC: 0.014 mol/L
S. epidermidis B374 [7]
  inhibition of adhesion to stainless steel: 69–88%
S. epidermidis B374 [8]
  reduced adhesion to polystyrene: 25–46%
[9]
  reduced adhesion to polystyrene: 25–46%
